The record followed here is PubChem BioAssay (NCI).

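Growth conditions: 96-well plates. Treatment: test compound, 48 hours, 5 concentrations. Analysis: linear interpolation between bracketing concentrations; unreached endpoints set to highest concentration. TGI marks complete inhibition of growth.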

Among the test systems are SF-268 CNS; LOX IMVI melanoma; HS 578T breast; SK-MEL-28 melanoma; MCF7 breast; OVCAR-4 ovarian; KM12 colon; NCI-H23 lung; NCI-H522 lung; CCRF-CEM leukemia; HT29 colon; HL-60(TB) leukemia; U251 CNS; SK-MEL-2 melanoma; 786-0 renal.
Common to all, as to experiment: NCI-60 cell line screen, 48 h

As to `CC1=C(C#N)C(=O)N(/N=C/c2ccc(Cl)cc2)C(=O)/C1=c1\o/c(=C2/C(=O)N(/N=C/c3ccc(Cl)cc3)C(=O)C(C#N)=C2C)c2nccnc12`, the TGI with SF-268 CNS, in the assay with LOX IMVI melanoma, with HS 578T breast, with SK-MEL-28 melanoma, with MCF7 breast and in the assay with OVCAR-4 ovarian was more than 100 µM throughout. Also, the TGI with KM12 colon, in the assay on NCI-H23 lung, in the assay with NCI-H522 lung, in the assay on CCRF-CEM leukemia, in the assay on HT29 colon and with HL-60(TB) leukemia was more than 100 µM in each case. In addition, the TGI with U251 CNS, with SK-MEL-2 melanoma and in the assay on 786-0 renal was more than 100 µM in each case.

Take `CCC/C(Cl)=N\OC(=O)Nc1ccc(Br)cc1`: the TGI stood at 46.2 µM with SF-268 CNS; 10.6 µM with LOX IMVI melanoma; 66.6 µM in the assay on HS 578T breast; 32.5 µM in the assay with SK-MEL-28 melanoma; 19.7 µM in the assay on MCF7 breast; 48.2 µM with OVCAR-4 ovarian. For the same molecule, the TGI stood at 16.2 µM with KM12 colon; 40.6 µM in the assay on NCI-H23 lung; 3.53 µM with NCI-H522 lung; 4.3 µM in the assay with CCRF-CEM leukemia; 44.1 µM in the assay with HT29 colon; 7.22 µM in the assay on HL-60(TB) leukemia. For the same molecule, the figures for the TGI with U251 CNS, with SK-MEL-2 melanoma and in the assay on 786-0 renal were 32.1 µM, 28.9 µM and 18.5 µM, respectively.

In the case of `Cc1ccc(S(=O)(=O)Oc2coc(CO)cc2=O)cc1`, the TGI in the assay with SF-268 CNS was 44.8 µM; in the assay on LOX IMVI melanoma, 14.9 µM; with HS 578T breast, more than 72.7 µM; with SK-MEL-28 melanoma it was 36.6 µM; in the assay on MCF7 breast, 22.1 µM; in the assay on OVCAR-4 ovarian, 32.3 µM. The TGI was determined as 18.7 µM with KM12 colon; 35.3 µM in the assay with NCI-H23 lung; 3.71 µM in the assay with NCI-H522 lung; 10.7 µM with CCRF-CEM leukemia; 30.4 µM in the assay with HT29 colon; 12.5 µM in the assay with HL-60(TB) leukemia. Also, the TGI with U251 CNS was found to be 23.7 µM; with SK-MEL-2 melanoma it was 57.6 µM; in the assay with 786-0 renal it was 23.4 µM.

`CCN(CC)CCN1CCN=c2c3cc(OC)ccc3n3cnc4ccc1c2c43`: the TGI is 2.54 µM in the assay on SF-268 CNS; 1.07 µM in the assay with LOX IMVI melanoma; 4.71 µM with HS 578T breast; 3.51 µM with SK-MEL-28 melanoma; 0.847 µM in the assay with MCF7 breast; 1.26 µM in the assay with OVCAR-4 ovarian. The TGI was 2.45 µM in the assay with KM12 colon; 4.61 µM with NCI-H23 lung; 3.86 µM with NCI-H522 lung; 1.71 µM with CCRF-CEM leukemia; 1.81 µM in the assay with HT29 colon; 1.2 µM in the assay on HL-60(TB) leukemia. Besides, the values for the TGI in the assay on U251 CNS, in the assay with SK-MEL-2 melanoma and with 786-0 renal were 2.74 µM, 2.18 µM and 1.72 µM, respectively.

As for `O=C(/C=C/c1c(O)c2ccccc2[nH]c1=O)CC(=O)C(=O)Nc1cccc(O)c1`, the TGI with SF-268 CNS, with LOX IMVI melanoma, in the assay with HS 578T breast, in the assay with SK-MEL-28 melanoma, in the assay on MCF7 breast and in the assay on OVCAR-4 ovarian was more than 100 µM throughout. For the same molecule, the TGI in the assay on KM12 colon, in the assay with NCI-H23 lung, in the assay with NCI-H522 lung, in the assay with CCRF-CEM leukemia, in the assay with HT29 colon and with HL-60(TB) leukemia was more than 100 µM each time. For the same molecule, the TGI with U251 CNS, in the assay on SK-MEL-2 melanoma and with 786-0 renal was more than 100 µM each time.

With `COc1ccc(-c2cc(=O)c3c(O)c(OC)c(O)cc3o2)cc1O`, the TGI with SF-268 CNS is more than 100 µM; with LOX IMVI melanoma, 32.7 µM; in the assay with HS 578T breast, 87.3 µM; in the assay with SK-MEL-28 melanoma, more than 100 µM; in the assay on MCF7 breast, 40.9 µM; with OVCAR-4 ovarian, more than 100 µM. The TGI in the assay with KM12 colon is 18.6 µM; in the assay on NCI-H23 lung, more than 100 µM; in the assay on NCI-H522 lung it was 9.53 µM; in the assay on CCRF-CEM leukemia it was more than 31.8 µM; in the assay on HT29 colon, more than 61.8 µM; with HL-60(TB) leukemia it was 14.2 µM. Besides, the TGI is more than 100 µM in the assay with U251 CNS, more than 43.5 µM in the assay on SK-MEL-2 melanoma and more than 52.7 µM with 786-0 renal.

In the case of `CCOP(=O)(CCC(O)CNc1nc(N)nc(Cl)c1N=Nc1ccc(Cl)cc1)OCC` (stereo not given), the TGI stood at 42.7 µM in the assay with SF-268 CNS; 22.9 µM with LOX IMVI melanoma; 38.2 µM in the assay on HS 578T breast; 25.9 µM in the assay with SK-MEL-28 melanoma; 26.3 µM with MCF7 breast; 24.3 µM with OVCAR-4 ovarian. Also, the TGI in the assay on KM12 colon amounted to 37.5 µM; in the assay with NCI-H23 lung it was 37.4 µM; in the assay with NCI-H522 lung it was 23 µM; with CCRF-CEM leukemia, 46.5 µM; in the assay on HT29 colon it was 28.8 µM; in the assay on HL-60(TB) leukemia it was 33.3 µM. Besides, the TGI was determined as 51.2 µM in the assay on U251 CNS, 24.3 µM in the assay on SK-MEL-2 melanoma and 48.4 µM with 786-0 renal.

For `Cc1ccc2nc(CN3CCCCC3)cc(=O)n2c1`, the TGI in the assay with SF-268 CNS, in the assay with LOX IMVI melanoma, with HS 578T breast, in the assay with SK-MEL-28 melanoma, with MCF7 breast and in the assay on OVCAR-4 ovarian was more than 100 µM in each case. Further, the TGI in the assay on KM12 colon, in the assay with NCI-H23 lung, in the assay on NCI-H522 lung, in the assay on CCRF-CEM leukemia, with HT29 colon and in the assay with HL-60(TB) leukemia was more than 100 µM throughout. For the same molecule, the TGI with U251 CNS, in the assay with SK-MEL-2 melanoma and in the assay with 786-0 renal was more than 100 µM in each case.

As to `COc1ccc2cc(CNCCCN3CCN(CCCNCc4ccc5cc(OC)ccc5c4)CC3)ccc2c1`, the TGI in the assay on SF-268 CNS came out at 3.32 µM; in the assay with LOX IMVI melanoma it was 1.48 µM; in the assay on HS 578T breast, 3.32 µM; in the assay with SK-MEL-28 melanoma, 3.09 µM; in the assay with MCF7 breast, 2.85 µM; in the assay with OVCAR-4 ovarian it was 3.48 µM. The TGI stood at 2.14 µM with KM12 colon; 3.5 µM in the assay on NCI-H23 lung; 3.81 µM with NCI-H522 lung; 1.3 µM in the assay with CCRF-CEM leukemia; 1.65 µM in the assay on HT29 colon; 0.594 µM with HL-60(TB) leukemia. Moreover, the TGI in the assay with U251 CNS stood at 3.13 µM; in the assay with SK-MEL-2 melanoma, 3.42 µM; with 786-0 renal, 2.88 µM.
